# Results taken from US20230295200A1 (REGENTS OF THE UNIVERSITY OF MICHIGAN, priority 2022, published 2023).
# Experiments:
# [1] = target: T1, STAT6 protein (Homo sapiens, UniProt P42226); assay: Fluorescence polarization (FP) binding assay, STAT6; conditions: FP competition, 5 nM fluorescein-labeled tracer, 200 nM protein, PBS pH7.4; read-out: Binding STAT6
# T1 sequence (P42226 1-847): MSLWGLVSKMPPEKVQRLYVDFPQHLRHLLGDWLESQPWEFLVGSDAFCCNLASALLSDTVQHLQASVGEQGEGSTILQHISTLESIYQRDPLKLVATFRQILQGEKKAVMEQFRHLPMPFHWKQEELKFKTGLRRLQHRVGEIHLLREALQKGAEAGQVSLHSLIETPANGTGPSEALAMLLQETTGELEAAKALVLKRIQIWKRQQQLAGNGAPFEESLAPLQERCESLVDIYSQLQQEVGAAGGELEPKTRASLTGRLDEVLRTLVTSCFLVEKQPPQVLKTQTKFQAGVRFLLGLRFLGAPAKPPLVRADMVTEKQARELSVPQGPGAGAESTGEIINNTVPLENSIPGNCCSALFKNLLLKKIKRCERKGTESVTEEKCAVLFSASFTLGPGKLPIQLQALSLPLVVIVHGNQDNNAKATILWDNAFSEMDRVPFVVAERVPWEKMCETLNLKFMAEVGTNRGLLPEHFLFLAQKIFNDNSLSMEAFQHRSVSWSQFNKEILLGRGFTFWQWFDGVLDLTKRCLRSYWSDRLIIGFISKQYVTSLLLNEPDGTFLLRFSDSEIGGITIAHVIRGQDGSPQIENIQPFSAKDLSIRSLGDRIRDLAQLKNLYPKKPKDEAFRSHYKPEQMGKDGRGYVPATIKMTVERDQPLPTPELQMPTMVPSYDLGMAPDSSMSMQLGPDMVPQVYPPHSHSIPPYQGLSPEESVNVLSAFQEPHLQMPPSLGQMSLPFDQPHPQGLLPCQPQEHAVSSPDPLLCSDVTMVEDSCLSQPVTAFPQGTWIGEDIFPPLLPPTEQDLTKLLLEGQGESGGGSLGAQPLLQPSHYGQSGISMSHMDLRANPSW
# In short: (§1)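 Competitive FP read-out with 5 nM fluorescein-labeled tracer and 200 nM STAT5 or STAT6 protein in PBS pH 7.4 containing 0.01% BGG, 0.01% Tween-20 and 2 mM DTT. Plates were shaken 15 min, then equilibrated 1 h at room temperature; inhibition constants came from nonlinear curve fitting.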
# [2] = target: T2, STAT5A (Homo sapiens, UniProt P42229); assay: Fluorescence polarization (FP) binding assay, STAT5A; conditions: FP competition, 5 nM fluorescein-labeled tracer, 200 nM protein, PBS pH7.4
# T2 sequence (P42229 1-794): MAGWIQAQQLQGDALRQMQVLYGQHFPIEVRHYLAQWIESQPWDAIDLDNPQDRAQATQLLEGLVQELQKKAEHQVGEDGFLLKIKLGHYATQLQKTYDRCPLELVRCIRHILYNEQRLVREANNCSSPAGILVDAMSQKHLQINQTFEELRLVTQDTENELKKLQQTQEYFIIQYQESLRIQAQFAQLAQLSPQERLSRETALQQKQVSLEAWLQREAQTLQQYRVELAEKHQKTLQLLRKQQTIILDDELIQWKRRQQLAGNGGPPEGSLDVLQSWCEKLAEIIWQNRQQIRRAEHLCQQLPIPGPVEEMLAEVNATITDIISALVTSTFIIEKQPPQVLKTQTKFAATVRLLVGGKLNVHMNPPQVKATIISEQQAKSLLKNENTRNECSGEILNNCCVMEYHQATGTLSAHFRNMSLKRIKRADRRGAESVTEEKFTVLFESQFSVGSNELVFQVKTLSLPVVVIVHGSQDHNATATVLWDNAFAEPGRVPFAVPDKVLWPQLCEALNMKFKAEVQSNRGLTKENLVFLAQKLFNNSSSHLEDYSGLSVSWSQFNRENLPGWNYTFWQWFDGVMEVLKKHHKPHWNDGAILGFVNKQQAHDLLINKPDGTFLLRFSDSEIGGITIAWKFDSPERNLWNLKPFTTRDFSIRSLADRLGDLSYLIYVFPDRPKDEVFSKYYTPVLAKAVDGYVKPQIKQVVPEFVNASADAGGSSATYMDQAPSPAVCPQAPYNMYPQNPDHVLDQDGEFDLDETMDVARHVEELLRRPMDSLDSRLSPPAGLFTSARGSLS
# In short: as §1
SMILES,Ki [1] [µM],Ki [2] [µM]
"CN(C(=O)[C@@H]1CCCN1C(=O)[C@@H](NC(=O)c1cc2cc(C(F)(F)P(=O)(O)O)ccc2[nH]1)C(C)(C)C)C(c1ccccc1)c1ccccc1 [Compound 32, ((2-(((S)-1-((S)-2-(benzhydryl(methyl)carbamoyl)pyrrolidin-1-yl)-3,3-dimethyl-1-oxobutan-2-yl)carbamoyl)-1H-indol-5-yl)difluoromethyl)phosphonic acid]",> 10,> 10
"CC(C)(C)[C@H](NC(=O)c1cc2cc(C(F)(F)P(=O)(O)O)ccc2[nH]1)C(=O)N1CCC[C@H]1c1ncc(-c2ccccc2)[nH]1 [Compound 33, ((2-(((S)-3,3-dimethyl-1-oxo-1-((S)-2-(5-phenyl-1H-imidazol-2-yl)pyrrolidin-1-yl)butan-2-yl)carbamoyl)-1H-indol-5-yl)difluoromethyl)phosphonic acid]",> 10,> 10
"CC(=O)N1CCC(C(NC(=O)c2cc3cc(C(F)(F)P(=O)(O)O)ccc3[nH]2)C(=O)N2CCC[C@H]2C(=O)N2CCc3ccccc3C2)CC1 (stereo partly drawn) [Compound 34, ((2-((1-(1-acetylpiperidin-4-yl)-2-oxo-2-((S)-2-(1,2,3,4-tetrahydroisoquinoline-2-carbonyl)pyrrolidin-1-yl)ethyl)carbamoyl)-1H-indol-5-yl)difluoromethyl)phosphonic acid]",> 10,> 10
"O=C(N[C@@H](CC1=CCN(Cc2ccccc2)CC1)C(=O)N1CCC[C@H]1C(=O)N1CCc2ccccc2C1)c1cc2cc(C(F)(F)P(=O)(O)O)ccc2[nH]1 [Compound 35, ((2-(((S)-3-(1-benzyl-1,2,3,6-tetrahydropyridin-4-yl)-1-oxo-1-((S)-2-(1,2,3,4-tetrahydroisoquinoline-2-carbonyl)pyrrolidin-1-yl)propan-2-yl)carbamoyl)-1H-indol-5-yl)difluoromethyl)phosphonic acid]",> 10,> 10
"O=C(N[C@@H](CC1CCNCC1)C(=O)N1CCC[C@H]1C(=O)N1CCc2ccccc2C1)c1cc2cc(C(F)(F)P(=O)(O)O)ccc2[nH]1 [Compound 36, (difluoro(2-(((S)-1-oxo-3-(piperidin-4-yl)-1-((S)-2-(1,2,3,4-tetrahydroisoquinoline-2-carbonyl)pyrrolidin-1-yl)propan-2-yl)carbamoyl)-1H-indol-5-yl)methyl)phosphonic acid]",> 10,> 10
"CC(C)(C)[C@H](NC(=O)c1cc2cc(C(F)(F)P(=O)(O)O)ccc2s1)C(=O)N1CCC[C@H]1C(=O)N(c1ccc(I)cc1)c1ccc(C(=O)OCc2ccccc2)cc1 [Compound 37, ((2-(((S)-1-((S)-2-((4-((benzyloxy)carbonyl)phenyl)(4-iodophenyl)carbamoyl)pyrrolidin-1-yl)-3,3-dimethyl-1-oxobutan-2-yl)carbamoyl)benzo[b]thiophen-5-yl)difluoromethyl)phosphonic acid]",0.1 to 1,1 to 10
"COC(=O)CCN(C(=O)[C@@H]1CCCN1C(=O)[C@@H](NC(=O)c1cc2cc(C(F)(F)P(=O)(O)O)ccc2s1)C(C)(C)C)c1ccccc1 [Compound 38, (difluoro(2-(((S)-1-((S)-2-((3-methoxy-3-oxopropyl)(phenyl)carbamoyl)pyrrolidin-1-yl)-3,3-dimethyl-1-oxobutan-2-yl)carbamoyl)benzo[b]thiophen-5-yl)methyl)phosphonic acid]",1 to 10,1 to 10
"CC(C)(C)[C@H](NC(=O)c1cc2cc(C(F)(F)P(=O)(O)O)ccc2s1)C(=O)N1CCC[C@H]1C(=O)N(c1ccccc1)c1ccc(I)cc1 [Compound 39, (difluoro(2-(((S)-1-((S)-2-((4-iodophenyl)(phenyl)carbamoyl)pyrrolidin-1-yl)-3,3-dimethyl-1-oxobutan-2-yl)carbamoyl)benzo[b]thiophen-5-yl)methyl)phosphonic acid]",0.1 to 1,1 to 10
"CC(C)(C)[C@H](NC(=O)c1cc2cc(C(F)(F)P(=O)(O)O)ccc2[nH]1)C(=O)N1CCC[C@H]1C(=O)N(c1ccc(Cl)cc1)C1CCCCC1 [Compound 40, ((2-(((S)-1-((S)-2-((4-chlorophenyl)(cyclohexyl)carbamoyl)pyrrolidin-1-yl)-3,3-dimethyl-1-oxobutan-2-yl)carbamoyl)-1H-indol-5-yl)difluoromethyl)phosphonic acid]",0.1 to 1,1 to 10
"CNC(=O)c1ccc(N(C(=O)[C@@H]2CCCN2C(=O)[C@@H](NC(=O)c2cc3cc(C(F)(F)P(=O)(O)O)ccc3s2)C(C)(C)C)c2ccc(I)cc2)cc1 [Compound 42, (difluoro(2-(((S)-1-((S)-2-((4-iodophenyl)(4-(methylcarbamoyl)phenyl)carbamoyl)pyrrolidin-1-yl)-3,3-dimethyl-1-oxobutan-2-yl)carbamoyl)benzo[b]thiophen-5-yl)methyl)phosphonic acid]",0.1 to 1,1 to 10
COC(=O)CCN(C(=O)[C@@H]1CCCN1C(=O)[C@@H](NC(=O)c1cc2cc(C(F)(F)P(=O)(O)O)ccc2s1)C(C)(C)C)c1ccc(Br)cc1 [Compound 43],0.1 to 1,0.1 to 1
"CNC(=O)c1ccc(N(C(=O)[C@@H]2CCCN2C(=O)[C@@H](NC(=O)c2cc3cc(C(F)(F)P(=O)(O)O)ccc3s2)C(C)(C)C)c2ccc(Cl)cc2)cc1 [Compound 44, ((2-(((S)-1-((S)-2-((4-chlorophenyl)(4-(methylcarbamoyl)phenyl)carbamoyl)pyrrolidin-1-yl)-3,3-dimethyl-1-oxobutan-2-yl)carbamoyl)benzo[b]thiophen-5-yl)difluoromethyl)phosphonic acid]",0.1 to 1,1 to 10
"CNC(=O)CCN(C(=O)[C@@H]1CCCN1C(=O)[C@@H](NC(=O)c1cc2cc(C(F)(F)P(=O)(O)O)ccc2s1)C(C)(C)C)c1ccc(Br)cc1 [Compound 45, ((2-(((S)-1-((S)-2-((4-bromophenyl)(3-(methylamino)-3-oxopropyl)carbamoyl)pyrrolidin-1-yl)-3,3-dimethyl-1-oxobutan-2-yl)carbamoyl)benzo[b]thiophen-5-yl)difluoromethyl)phosphonic acid]",0.1 to 1,1 to 10
"CC(C)(C)[C@H](NC(=O)c1cc2cc(C(F)(F)P(=O)(O)O)ccc2s1)C(=O)N1CCC[C@H]1C(=O)N(CCC(=O)O)c1ccc(Br)cc1 [Compound 46, 3-((S)-N-(4-bromophenyl)-1-((S)-2-(5-(difluoro(phosphono)methyl)benzo[b]thiophene-2-carboxamido)-3,3-dimethylbutanoyl)pyrrolidine-2-carboxamido)propanoic acid]",0.1 to 1,0.1 to 1
"CC(C)(C)[C@H](NC(=O)c1cc2cc(C(F)(F)P(=O)(O)O)ccc2s1)C(=O)N1CCC[C@H]1C(=O)N1CCCC12CCCC2 [Compound 58, ((2-(((S)-1-((S)-2-(1-azaspiro[4.4]nonane-1-carbonyl)pyrrolidin-1-yl)-3,3-dimethyl-1-oxobutan-2-yl)carbamoyl)benzo[b]thiophen-5-yl)difluoromethyl)phosphonic acid]",1 to 10,> 10
"CC(C)(C)[C@H](NC(=O)c1cc2cc(C(F)(F)P(=O)(O)O)ccc2s1)C(=O)N1CCC[C@H]1C(=O)N1CCC2(CCCC2)C1 [Compound 59, ((2-(((S)-1-((S)-2-(2-azaspiro[4.4]nonane-2-carbonyl)pyrrolidin-1-yl)-3,3-dimethyl-1-oxobutan-2-yl)carbamoyl)benzo[b]thiophen-5-yl)difluoromethyl)phosphonic acid]",1 to 10,> 10
